Earlier results as cited in patent US20240316044A1, “GRANULATE COMPOSITION COMPRISING NILOTINIB” (HELM AG, priority 2021, published 2024).
Counter-ions that a name gives are not always drawn.

BCS class (low/moderate aqueous solubility and low permeability): Class IV
Compound: Cc1cn(-c2cc(NC(=O)c3ccc(C)c(Nc4nccc(-c5cccnc5)n4)c3)cc(C(F)(F)F)c2)cn1 [Anhydrous Nilotinib hydrochloride, 4-methyl-N-[3-(4-methyl-1H-imidazol-1-yl)-5-(trifluoromethyl)phenyl]-3-{[4-(pyridin-3-yl)pyrimidin-2-yl]amino} benzamide]
